Tests used:
[1] = Metabolic stability in dog hepatocytes; assay type: in vitro ADME; settings: pooled cryopreserved hepatocytes; beagle dog hepatocytes, 2 μM compound, 500,000 cells/mL, 37° C.; read-out: Dog Hepatocyte Stability (T½: min)
Method: The following procedure was used to determine the stability of test compounds in beagle dog hepatocytes in a 96-well plate format. The test compounds, including the controls, imipramine and 7-ethoxycoumarin, were dissolved at 10 mM in DMSO, followed by further 5-fold dilution with DMSO to 2 mM. Pooled cryopreserved beagle dog hepatocytes were thawed and transferred into complete medium. Cells were gently centrifuged (700 rpm for 5 min) and the pellet rinsed with KHB (Krebs Henseleit buffer). Cells were resuspended, counted using Trypan blue, and adjusted to 1 million cells/mL in KHB buffer. The 2 mM compound stock solutions were diluted 10-fold with acetonitrile, followed by a further 50-fold dilution with KHB buffer. 200 μL of these compound solutions were transferred to 96-well polypropylene assay plates and an equal volume of the hepatocyte solution was added and mixed to initiate the reaction (final assay concentrations were 2 μM compound and 500,000 cells/mL). Assay plates were incubated at 37° C. in 5% CO2 with gentle agitation. 50 μL aliquots were removed at multiple time points out to 180 minutes and quenched with 6 volumes of cold acetonitrile (containing 250 ng/mL of carbutamide and chrysin as internal standards) to terminate the reaction and precipitate protein. Quenched samples were maintained on ice. The quenched samples were centrifuged at 2000×g (3100 rpm) for 10 minutes at 4° C. 50 μL aliquots of the supernatants were removed and diluted with 100 μL Milli-Q water to reduce the % organic content prior to bioanalysis by LC-MS/MS. Peak areas corresponding to the test compound were recorded. The compound remaining was calculated by comparing the peak area at each time point to time zero. Data were analyzed and results were calculated using Microsoft Excel 2010.

[2] = Aqueous solubility in PBS pH 7.4; assay type: physicochemical; settings: phosphate buffered saline, aqueous buffer, kinetic from dmso stock, PBS pH 7.4, room temperature
Method: The following procedure was used to determine the aqueous solubility of a test compound in phosphate buffered saline (PBS—NaCl 137 mM, KCl 2.7 mM, Na2HPO4 8.1 mM, KH2PO4 1.5 mM, pH 7.4) in 96-well plate format by HPLC-UV/VIS analysis. The test compound was prepared at 200 μM in PBS from a 10 mM DMSO stock solution. The final DMSO concentration was 2%. The PBS buffer samples were mixed thoroughly followed by incubation at room temperature for 24 h. At the end of the incubation, the PBS buffer samples were centrifuged and supernatants analyzed by HPLC. The aqueous solubility (μM) of the test compound in PBS was determined by comparing the peak area of the principal peak in the calibration standard (200 μM) with the peak area of the corresponding peak in each of the PBS samples. The range of the assay was approximately 0.5 μM to 200 μM. The reference compounds used in each assay were metoprolol, rifampicin, ketoconazole, phenytoin, haloperidol, simvastatin, diethylstilbestrol, and tamoxifen ranking from fully soluble (200 μM) to poorly soluble (<1 μM).

[3] = target: T1, Factor Xa (Homo sapiens, UniProt P00742); assay: Dose response assay for protease inhibitors: Factor Xa; assay type: biochemical; settings: ratio versus Factor XIa
T1 construct: Factor Xa; 0.2 μM in 50% glycerol (9.2 μg/mL)

[4] = Plasma protein binding by equilibrium dialysis; assay type: in vitro ADME; settings: both sexes, pooled plasma, pH 7.4, human plasma protein binding, read-out: PPB
Method: The following procedure was used to determine the plasma protein binding of a test compound in pooled plasma from human (mixed gender) via equilibrium dialysis in a 96-well plate format. The dialysate compartment was loaded with phosphate-buffered saline (pH 7.4) and the sample side was loaded with plasma spiked with the test compound at a concentration of 10 μM. After loading, samples were covered and incubated for 4 hours at 37° C. After incubation, each compartment was sampled, diluted with acetonitrile/buffer and centrifuged. The supernatants were analyzed by HPLC-MS/MS. The analyte peak areas obtained from HPLC-MS/MS analysis of each sample were used to calculate protein binding according to the following equation (Equation 4):
where: AREAp=Peak area of analyte in protein matrix; AREAb=Peak area of analyte in buffer. The amount measured in the plasma compartment included both free and bound drug, while that on the buffer side represented free drug only; the differences were used to calculate the percentage plasma protein bound. Three reference compounds were tested in each assay: acebutolol, quinidine and warfarin.

T1 sequence (P00742 235-488 limits assumed): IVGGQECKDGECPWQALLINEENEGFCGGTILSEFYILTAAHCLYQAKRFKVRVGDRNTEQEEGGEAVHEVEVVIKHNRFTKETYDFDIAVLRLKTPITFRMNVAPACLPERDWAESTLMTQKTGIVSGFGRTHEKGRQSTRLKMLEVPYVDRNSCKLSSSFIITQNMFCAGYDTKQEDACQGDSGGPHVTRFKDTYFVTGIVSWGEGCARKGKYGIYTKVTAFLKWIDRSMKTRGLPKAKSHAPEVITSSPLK
T1 sequence (P00742 41-179 partner limits assumed): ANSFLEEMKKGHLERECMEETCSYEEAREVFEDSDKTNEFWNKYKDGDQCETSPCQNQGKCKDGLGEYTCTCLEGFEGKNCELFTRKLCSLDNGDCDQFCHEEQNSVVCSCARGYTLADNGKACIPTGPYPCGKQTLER

SMILES | half-life at 2 μM [1] [h] | solubility at 24 h [2] [µM] | FXa/FXIa (selectivity ratio) [3] | fraction unbound at 4 h, 10 μM [4]
CC[C@@H](NC(=O)N1C(=O)[C@H](Cc2ccnc(N)c2)[C@H]1C(=O)N(C)c1ccccc1)c1cccnc1 [Compound 44] | 2.02 to 4 | > 100 | I (“I” indicates >500) | 0.1 to 0.5
CN(C(=O)[C@@H]1[C@@H](Cc2ccnc(N)c2)C(=O)N1C(=O)NC(c1ccccc1)c1ccccc1)c1ccncc1 [Compound 82] | 2.02 to 4 | > 100 | I (“I” indicates >500) | 0.05 to 0.09
CC[C@@H](NC(=O)N1C(=O)[C@H](Cc2ccnc(N)c2)[C@H]1C(=O)N(C)c1ccccc1)C1CCCCC1 [Compound 27] | 2.02 to 4 | > 100 | I (“I” indicates >500) | 0.05 to 0.09
CN(C(=O)[C@@H]1[C@@H](Cc2ccnc(N)c2)C(=O)N1C(=O)N[C@@H](C1CCCCC1)C(F)(F)F)c1ncccn1 [Compound 21] | < 1 | > 100 | I (“I” indicates >500) | < 0.05
CCC[C@@H](NC(=O)N1C(=O)[C@H](Cc2ccnc(N)c2)[C@H]1C(=O)N(C)c1ccncc1)c1ccccc1 [Compound 86] | > 4 | > 100 | I (“I” indicates >500) | < 0.05
CC[C@@H](NC(=O)N1C(=O)[C@H](Cc2ccnc(N)c2)[C@H]1C(=O)N(C)c1ncncn1)c1ccccc1 [Compound 83] | < 1 | > 100 | I (“I” indicates >500) | 0.1 to 0.5
CC[C@@H](NC(=O)N1C(=O)[C@H](Cc2ccnc(N)c2)[C@H]1C(=O)N(C)c1ccncc1)c1cccnc1 [Compound 59] | > 4 | > 100 | I (“I” indicates >500) | < 0.5

Second part, the molecule after the results:

half-life at 2 μM [1] [h] | solubility at 24 h [2] [µM] | FXa/FXIa (selectivity ratio) [3] | fraction unbound at 4 h, 10 μM [4] | SMILES
< 1 | > 100 | I (“I” indicates >500) | 0.05 to 0.09 | CC[C@@H](NC(=O)N1C(=O)[C@H](Cc2ccnc(N)c2)[C@H]1C(=O)N(C)c1ncccn1)c1cccc(Cl)c1 [Compound 121]
2.02 to 4 | > 100 | I (“I” indicates >500) | 0.05 to 0.09 | CC[C@@H](NC(=O)N1C(=O)[C@H](Cc2ccnc(N)c2)[C@H]1C(=O)N(C)c1ccncc1)c1ccccc1Cl [Compound 95]
> 4 | > 100 | H (“H” indicates 101-1000) | 0.1 to 0.5 | CC[C@@H](NC(=O)N1C(=O)[C@H](Cc2ccnc(N)c2)[C@H]1C(=O)N(C)c1ccncc1)c1cccc(OC)c1 [Compound 100]
2.02 to 4 | > 100 | I (“I” indicates >500) | 0.1 to 0.5 | CC[C@H](NC(=O)N1C(=O)[C@H](Cc2ccnc(N)c2)[C@H]1C(=O)N(C)c1ccncc1)c1ccccc1C [Compound 97]
> 4 | > 100 | H (“H” indicates 101-1000) | 0.05 to 0.09 | CC[C@@H](NC(=O)N1C(=O)[C@H](Cc2ccnc(N)c2)[C@H]1C(=O)N(C)c1ccncc1)c1ccc(Cl)cc1 [Compound 89]

Source: patent publication US20190315711A1 (eXIthera Pharmaceuticals, Inc., priority 2016, published 2019)
